Assay results taken from patent publication US10760110B2, “Antibiotic testing and screening system” (priority 2017, dated 2020).
In brackets after ≈: the same amount, converted by molar mass. Read-outs that look alike come from different tables or passages of the source.

How the values were obtained:
[1] = system: K. pneumoniae NVT1001 and its ΔompK35/36 and/or ΔramR mutants; assay: Etest MIC, OmpK35/36 loss and AcrAB-TolC overexpression (ΔramR) strains (Table 6); format: cell-based, Klebsiella pneumoniae; conditions: Klebsiella pneumoniae
Method in brief: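 Etest strips per kit instructions; off-scale intermediate readings rounded upward to the nearest two-fold concentration. Broth microdilution (CLSI) for ceftazidime, cefotaxime only. Breakpoints: CLSI 2017 generally, CLSI 2015 for cephalothin, EUCAST 2017 for moxifloxacin.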

[2] = system: K. pneumoniae NVT1001 ΔramRΔompK35/36 mutant and its revertants; assay: Etest MIC, ΔramRΔompK35/36 mutant and its revertants (Table 7); format: cell-based; conditions: Klebsiella pneumoniae
[3] = system: K. pneumoniae NVT1001 strains with carbapenemase plasmids; assay: Etest MIC of β-lactams, OmpK35/36 loss, ΔramR and/or carbapenemase (Table 9); format: cell-based, Klebsiella pneumoniae; conditions: for MIC: Klebsiella pneumoniae
Description: DNA fragments of the resistance genes along with their flanking regions were amplified from clinical plasmids via PCR with specific primer pairs. The resulting PCR fragments were digested and then cloned into the plasmid pACYC177 or pACYC184. The resulting plasmids were then transformed into K. pneumoniae strain NVT1001 via electroporation. The recombinant bacteria were plated onto LB agar plates containing kanamycin (50 mg/L) or chloramphenicol (50 mg/L), and the presence of the cloned gene was confirmed via PCR and DNA sequencing.
The MICs of antibiotics were determined using the Etest (Biodisk AB, Sweden) according to the manufacturer's instructions. The MICs from the Etest, which fall between standard two-fold dilutions, were rounded up to the next highest two-fold value. The MICs of ceftazidime and cefotaxime against K. pneumoniae NVT1001 harbouring the pACYC177 plasmid with blaOXA-48 were further determined using a broth microdilution test according to the recommendations of the CLSI,^25 and the results were interpreted according to the breakpoints established by the CLSI in 2017.^25 Meanwhile, due to the lack of CLSI breakpoints in 2016 and 2017, the results for cephalothin were interpreted according to the breakpoints established by the CLSI in 2015,^26 and the results for moxifloxacin were interpreted according to the breakpoints established by the EUCAST in 2017.^27

CO[C@@]1(NC(=O)Cc2cccs2)C(=O)N2C(C(=O)O)=C(COC(N)=O)CS[C@@H]21 [Cefoxitin]
MIC ([1]; WT, NVT1001, read-out: MIC): 4 µg/mL (≈ 9.36 µM)
MIC ([1]; Δ35, ΔompK35 mutant): 4 µg/mL (≈ 9.36 µM)
MIC ([1]; Δ35/36, ΔompK35/36 mutant): 128 µg/mL (≈ 299 µM)
MIC ([1]; Δ36, ΔompK36 mutant): 16 µg/mL (≈ 37.4 µM)
MIC ([1]; ΔramR mutant): 64 µg/mL (≈ 150 µM)
MIC ([1]; ΔramRΔ35, ΔramRΔompK35 mutant): 64 µg/mL (≈ 150 µM)
MIC ([1]; ΔramRΔ35/36, ΔramRΔompK35/36 mutant): > 256 µg/mL
MIC ([1]; ΔramRΔ36, ΔramRΔompK36 mutant): > 256 µg/mL
MIC ([2]; ΔramRΔompK35/36::ompK35/36 revertant): 64 µg/mL
MIC ([2]; ΔramRΔompK35/36::ompK35 revertant): > 256 µg/mL
MIC ([2]; ΔramRΔompK35/36::ompK36 revertant): 64 µg/mL
MIC ([2]; ΔramRΔompK35/36::ramR revertant): 64 µg/mL
MIC ([2]; ΔramRΔompK35/36::ramR::ompK35/36 revertant): 4 µg/mL
MIC ([2]; ΔramRΔompK35/36::ramR::ompK35 revertant): 16 µg/mL
MIC ([2]; ΔramRΔompK35/36::ramR::ompK36 revertant): 8 µg/mL
MIC ([2]; ΔramRΔompK35/36 mutant): > 256 µg/mL
MIC ([3]; IMP-8 on pACYC177, WT (NVT1001), read-out: MIC): > 256 µg/mL
MIC ([3]; IMP-8 on pACYC177, Δ35 (ΔompK35 mutant)): > 256 µg/mL
MIC ([3]; IMP-8 on pACYC177, Δ35/36 (ΔompK35/36 mutant)): > 256 µg/mL
MIC ([3]; IMP-8 on pACYC177, Δ36 (ΔompK36 mutant)): > 256 µg/mL
MIC ([3]; IMP-8 on pACYC177, ΔramR mutant): > 256 µg/mL
MIC ([3]; IMP-8 on pACYC177, ΔramRΔ35 (ΔramRΔompK35 mutant)): > 256 µg/mL
MIC ([3]; IMP-8 on pACYC177, ΔramRΔ35/36 (ΔramRΔompK35/36 mutant)): > 256 µg/mL
MIC ([3]; IMP-8 on pACYC177, ΔramRΔ36 (ΔramRΔompK36 mutant)): > 256 µg/mL
MIC ([3]; KPC-2 on pACYC177, WT (NVT1001), read-out: MIC): 16 µg/mL
MIC ([3]; KPC-2 on pACYC177, Δ35 (ΔompK35 mutant)): 32 µg/mL
MIC ([3]; KPC-2 on pACYC177, Δ35/36 (ΔompK35/36 mutant)): > 256 µg/mL
MIC ([3]; KPC-2 on pACYC177, Δ36 (ΔompK36 mutant)): 64 µg/mL
MIC ([3]; KPC-2 on pACYC177, ΔramR mutant): 128 µg/mL
MIC ([3]; KPC-2 on pACYC177, ΔramRΔ35 (ΔramRΔompK35 mutant)): 128 µg/mL
MIC ([3]; KPC-2 on pACYC177, ΔramRΔ35/36 (ΔramRΔompK35/36 mutant)): > 256 µg/mL
MIC ([3]; KPC-2 on pACYC177, ΔramRΔ36 (ΔramRΔompK36 mutant)): > 256 µg/mL
MIC ([3]; KPC-3 on pACYC177, WT (NVT1001), read-out: MIC): 16 µg/mL
MIC ([3]; KPC-3 on pACYC177, Δ35 (ΔompK35 mutant)): 32 µg/mL
MIC ([3]; KPC-3 on pACYC177, Δ35/36 (ΔompK35/36 mutant)): > 256 µg/mL
MIC ([3]; KPC-3 on pACYC177, Δ36 (ΔompK36 mutant)): 64 µg/mL
MIC ([3]; KPC-3 on pACYC177, ΔramR mutant): 128 µg/mL
MIC ([3]; KPC-3 on pACYC177, ΔramRΔ35 (ΔramRΔompK35 mutant)): 128 µg/mL
MIC ([3]; KPC-3 on pACYC177, ΔramRΔ35/36 (ΔramRΔompK35/36 mutant)): > 256 µg/mL
MIC ([3]; KPC-3 on pACYC177, ΔramRΔ36 (ΔramRΔompK36 mutant)): > 256 µg/mL
MIC ([3]; NDM-1 on pACYC177, WT (NVT1001), read-out: MIC): > 256 µg/mL
MIC ([3]; NDM-1 on pACYC177, Δ35 (ΔompK35 mutant)): > 256 µg/mL
MIC ([3]; NDM-1 on pACYC177, Δ35/36 (ΔompK35/36 mutant)): > 256 µg/mL
MIC ([3]; NDM-1 on pACYC177, Δ36 (ΔompK36 mutant)): > 256 µg/mL
MIC ([3]; NDM-1 on pACYC177, ΔramR mutant): > 256 µg/mL
MIC ([3]; NDM-1 on pACYC177, ΔramRΔ35 (ΔramRΔompK35 mutant)): > 256 µg/mL
MIC ([3]; NDM-1 on pACYC177, ΔramRΔ35/36 (ΔramRΔompK35/36 mutant)): > 256 µg/mL
MIC ([3]; NDM-1 on pACYC177, ΔramRΔ36 (ΔramRΔompK36 mutant)): > 256 µg/mL
MIC ([3]; OXA-48 on pACYC177, WT (NVT1001), read-out: MIC): 4 µg/mL
MIC ([3]; OXA-48 on pACYC177, Δ35 (ΔompK35 mutant)): 8 µg/mL
MIC ([3]; OXA-48 on pACYC177, Δ35/36 (ΔompK35/36 mutant)): 128 µg/mL
MIC ([3]; OXA-48 on pACYC177, Δ36 (ΔompK36 mutant)): 16 µg/mL
MIC ([3]; OXA-48 on pACYC177, ΔramR mutant): 128 µg/mL
MIC ([3]; OXA-48 on pACYC177, ΔramRΔ35 (ΔramRΔompK35 mutant)): 64 µg/mL
MIC ([3]; OXA-48 on pACYC177, ΔramRΔ35/36 (ΔramRΔompK35/36 mutant)): > 256 µg/mL
MIC ([3]; OXA-48 on pACYC177, ΔramRΔ36 (ΔramRΔompK36 mutant)): > 256 µg/mL
MIC ([3]; VIM-1 on pACYC177, WT (NVT1001), read-out: MIC): > 256 µg/mL
MIC ([3]; VIM-1 on pACYC177, Δ35 (ΔompK35 mutant)): > 256 µg/mL
MIC ([3]; VIM-1 on pACYC177, Δ35/36 (ΔompK35/36 mutant)): > 256 µg/mL
MIC ([3]; VIM-1 on pACYC177, Δ36 (ΔompK36 mutant)): > 256 µg/mL
MIC ([3]; VIM-1 on pACYC177, ΔramR mutant): > 256 µg/mL
MIC ([3]; VIM-1 on pACYC177, ΔramRΔ35 (ΔramRΔompK35 mutant)): > 256 µg/mL
MIC ([3]; VIM-1 on pACYC177, ΔramRΔ35/36 (ΔramRΔompK35/36 mutant)): > 256 µg/mL
MIC ([3]; VIM-1 on pACYC177, ΔramRΔ36 (ΔramRΔompK36 mutant)): > 256 µg/mL
MIC ([3]; no supplemental plasmid, WT (NVT1001), read-out: MIC): 4 µg/mL
MIC ([3]; no supplemental plasmid, Δ35 (ΔompK35 mutant)): 4 µg/mL
MIC ([3]; no supplemental plasmid, Δ35/36 (ΔompK35/36 mutant)): 128 µg/mL
MIC ([3]; no supplemental plasmid, Δ36 (ΔompK36 mutant)): 16 µg/mL
MIC ([3]; no supplemental plasmid, ΔramR mutant): 64 µg/mL
MIC ([3]; no supplemental plasmid, ΔramRΔ35 (ΔramRΔompK35 mutant)): 64 µg/mL
MIC ([3]; no supplemental plasmid, ΔramRΔ35/36 (ΔramRΔompK35/36 mutant)): > 256 µg/mL
MIC ([3]; no supplemental plasmid, ΔramRΔ36 (ΔramRΔompK36 mutant)): > 256 µg/mL
resistance category ([3]; production of KPC-2 or KPC-3 alone): intermediate resistance
